The text below walks through data of patent publication US20030232860A1, “Medicine comprising dicyanopyridine derivative” (priority 2000, published 2003).

Counter-ions that a name gives are not always drawn.

On to `CSc1nc(N)c(C#N)c(-c2ccccc2)c1C#N` [Example 76], for which the melting point – broadly, the temperature of the solid-liquid transition – amounted to 297 °C.

In turn, `COc1nc(NC(=O)COCc2ccccc2)c(C#N)c(-c2ccccc2F)c1C#N` [Example 399, 2-benzyloxy-N-[3,5-dicyano-4-(2-fluorophenyl)-6-methoxypyridin-2-yl]acetamide] yielded a melting point of 164 to 166 °C.

For `COc1nc(NC(C)=O)c(C#N)c(-c2c(F)cccc2F)c1C#N` [Example 63, N-[3,5-dicyano-4-(2,6-difluorophenyl)-6-methoxypyridin-2-yl]acetamide], the melting point lay within 200 to 201 °C.

`COc1nc(N)c(C#N)c(-c2cnc(N)s2)c1C#N` (as salt: chloride) [Example 67, 2-amino-4-(2-aminothiazol-5-yl)-6-methoxypyridine-3,5-dicarbonitrile mono hydro chloride]: the melting point is 240 to 242 °C (dec.).

Turning to `Cl.Cl.N#Cc1c(N)nc(Sc2cccnc2)c(C#N)c1-c1cccc(N)c1`, the melting point was 285 to 288 °C (dec.).

Compound `CC(C)Oc1nc(N)c(C#N)c(-c2ccccc2F)c1C#N` [Example 18, 2-amino-4-(2-fluorophenyl)-6-isopropoxypyridine-3,5-dicarbonitrile] yielded a melting point of 161 to 162 °C.

Consider `COC(=O)CNc1nc(OC)c(C#N)c(-c2ccccc2)c1C#N` [Example 363, methyl [(3,5-dicyano-6-methoxy-4-phenylpyridin-2-yl)amino]acetate], for which the melting point fell in the range of 140 to 141 °C.

`N#Cc1c(N)nc(OCCO)c(C#N)c1-c1ccccc1` [Example 13, 2-amino-6-(2-hydroxyethoxy)-4-phenylpyridine-3,5-dicarbonitrile] yielded a melting point of 212 to 214 °C.

Compound `COc1nc(N)c(C#N)c(-c2ccc(NS(C)(=O)=O)cc2)c1C#N` [Example 38, N-[4-(2-amino-3,5-dicyano-6-methoxypyridin-4-yl)phenyl]methanesulfonamide] came in with a melting point of 265 to 266 °C.

In turn, `CCc1c(C#N)c(N)nc(OC)c1C#N` [Example 149] yielded a melting point of 160 to 161 °C.

In turn, `COCC(=O)Nc1nc(OC)c(C#N)c(-c2ccccc2F)c1C#N` [Example 60, N-[3,5-dicyano-4-(2-fluorophenyl)-6-methoxypyridin-2-yl]-2-methoxyacetamide] yielded a melting point of 168 to 169 °C.

Turning to `COc1nc(N)c(C#N)c(-c2ccc3nc[nH]c3c2)c1C#N` (as salt: HCl) [Example 173], the melting point was 299 to 300 °C.

The compound `N#Cc1c(N)nc(Cl)c(C#N)c1-c1cccs1` [Example 372] gave a melting point of 301 °C.

`COc1nc(NC(=O)C(F)(F)F)c(C#N)c(-c2ccccc2F)c1C#N` [Example 69, N-[3,5-dicyano-4-(2-fluorophenyl)-6-methoxypyridin-2-yl]-2,2,2-trifluoroacetamide]: the melting point fell in the range of 142 to 145 °C.

Regarding `CSc1nc(O)c(C#N)c(-c2cccs2)c1C#N` [Example 23, 2-hydroxy-6-methylsulfanyl-4-thiophen-2-ylpyridine-3,5-dicarbonitrile], the melting point was 245 °C (dec.).

The compound `COc1nc(NC(=O)c2ccc3ccccc3c2)c(C#N)c(-c2ccccc2F)c1C#N` [Example 411, N-[3,5-dicyano-4-(2-fluorophenyl)-6-methoxypyridin-2-yl]naphthalene-2-carbo xamide] showed a melting point of 227 to 230 °C.

For `COc1nc(N(C)C)c(C#N)c(-c2ccccc2)c1C#N` [Example 361], the melting point lay in the range of 179 to 180 °C.

On to `COc1nc(NC(=O)C(C)(C)C)c(C#N)c(-c2ccccc2F)c1C#N` [Example 406, N-[3,5-dicyano-4-(2-fluorophenyl)-6-methoxypyridin-2-yl]-2,2-dimethylpropio namide], for which the melting point lay in the range of 162 to 164 °C.

In the case of `COc1nc(NCCO)c(C#N)c(-c2ccccc2)c1C#N` [Example 362, 2-[(2-hydroxyethyl)amino]-6-methoxy-4-phenylpyridine-3,5-dicarbonitrile], the melting point lay within 153 to 155 °C.
